Data: patent US4668677A, “4-phenylphthalazine derivatives, their preparation and their use as pharmaceuticals” (Mitsubishi Chemical Industries Limited, priority 1984, dated 1987)

How the values were obtained:
blood platelets [1] = assay: Activity to inhibit the aggregation of blood platelets (collagen, ex vivo after oral administration); type: in vivo, rat (male Wistar-ST strain); conditions: Rattus norvegicus, Platelet, po, read-out: Inhibitory rate of blood platelet aggregation
Procedure: Male Wistar-ST strain rats of an average body weight of 250 g were used, a group consisting of 8 animals. The test compound indicated in the following Table 1 was orally administered to rats in the form of a suspension in a 1% tragacanth aqueous solution at 4 ml/Kg (the test compound 10 mg/Kg).
One hour after the administration, blood samples were obtained from the carotid artery by means of a cannule. […] Tubes were turned upside-down and then subjected to centrifugation at 200×g over 15 minutes to assign the supernatant as a platelet-rich plasma (PRP). The residue was further centrifuged at […] over 15 minutes to assign the supernatant as a platelet-poor plasma (PPP). These supernatants were applied for determining the ability to aggregate blood platelets. […] As an aggregation inducing agent, collagen (availale from Hormon-chemie A.G.) was used at a concentration of 7 to 10 μg/ml.
Inhibitory rate to aggregate blood platelets was calculated according to the following equation: [formula] A: […] in the group to which the 1% tragacanth solution alone was given (Control)
B: Aggregation rate in the group to which the tragacanth solution of the test compound was given.

blood platelets [2] = assay: Activity to inhibit the blood platelet adhesion (glass bead method); type: cell-based, rat (male Wistar-ST strain); conditions: Rattus norvegicus, read-out: Inhibitory rate of blood platelet adhesion
Procedure: As experimental animals, there were used male Wistar-ST strain rats of an average body weight of 250 g.
Blood samples were obained from carotid arteries by means of a cannule and immediately admixed with sodium citrate at a volume ratio of 1/10. The mixture was centrifuged at 200×g over 15 minutes to collect the supernatant (platelet-rich plasma: PRP). The PRP was then centrifuged at 2000×g over 15 minutes and the supernatant was removed to give blood platelet pellet.
To the resultant blood platelet pellet was added a 15 mM tris.HCl buffer solution with EDTA (pH 7.4) to resuspend blood platelets therein and then one applied centrifugation at 2000×g over 15 minutes and the supernatant was removed. The resultant washed blood platelets were added to a 0.3 mM tris.HCl buffer solution with CaCl2 (pH 7.4) to resuspend blood platelets therein, whereby there was prepared a blood platelet suspension adjusted to five hundred thousand platelets/μl. To 2 ml of the blood platelet suspension were added 2 μl of a methanolic solution of each test compound and incubation was effected for 15 minutes. Then blood platelet adhesion was determined according to a glass bead method by using a timing blood suction apparatus for determining the blood platelet adhesion.
The number of blood platelets was counted by means of a blood platelet counter.
Inhibitory rate of blood platelet adhesion was calculated according to the following equation: [formula] A: Blood platelet number in the blood platelet suspension passed through a control column
B: Blood platelet number in the blood platelet suspension passed through a bead-packing column

mice = assay: Anti-thrombotic activity: arachidonic acid-induced mortality in mice; type: in vivo, mouse (male ICR-JCL strain); conditions: for Survival time of dead mice: arachidonic acid 100 mg/Kg i.v.; for Mortality: arachidonic acid 100 mg/Kg i.v. after 1 hour
Procedure: Male ICR-JCL strain mice with an average body weight of about 25 g and male New Zealand White rabbits with an average body weight of about 3 Kg were used.
Where mice were used as experimental animals, a suspension of the test compound indicated in Table 3 in a 1% tragacanth aqueous solution was orally administered to animals at 20 ml/Kg. One hour after the administration, an arachidonic acid (PL-biochemical Co., Inc.) solution dissolved in a 0.1M sodium carbonate aqueous solution was intravenously given at 100 mg/Kg. Evaluation of activity was effected with the time from the administration of arachidonic acid up to the death of animals as well as mortality.

[3] = tested on: PGI2-like substance in vessel walls; assay: Influence on production of PGI2-like substance in vessel walls (ADP aggregation with carotid artery ring); type: in vivo, rat (male Wistar-ST strain); conditions: for Aggregation rate with ADP when carotid artery ring added: 1 hour, 10 μM ADP
Procedure: Male Wistar-ST strain rats with an average weight of about 250 g were used as experimental animals. After fasted for 18 hours, 6.3 ml of blood sample were obtained from corotid artery and immediately thereafter 0.7 ml of an anticoagulant (3.8% sodium citrate) was added and the sample was centrifuged at 200×g over 15 minutes to take platelet-rich plasma (PRP). The same procedures as above were carried out, using 5 to 6 rats, whereby 5-6 ml as normal PRP were stored and employed.
Reference aggregation values were determined by pouring 1 ml each of stored PRP into plastic test tubes, incubating them at 22° C. for 10 minutes and then determining aggregation rate. As an aggregation inducing agent, one employed 10 μM ADP (available from Sigma Co., Inc.)
A suspension of the compound of this invention or aspirin in a 1% aqueous solution of tragacanth was orally given to animals. After 1 hour, 5 mg of carotid artery were cut out in a ring shape and placed into a plastic test tube together with 1 ml of stored PRP. After incubated at 22° C. for 10 minutes, aggregation rate was determined.
Also, non-medicated groups were similarly treated and aggregation rate was determined.
Determination of blood platelet aggregation rate was made by means of an aggregometer.

blood platelet = conditions: Drugs, 18, 439 (1979); cited from earlier work
blood flow = conditions: Prostaglandins, 25, 549 (1983); cited from earlier work
brain = conditions: Am. J. Physiol., 243, H416 (1982); cited from earlier work

SMILES: CC(=O)Oc1ccccc1C(=O)O [Aspirin, aspirin]
- inhibition at 30 mg/kg (blood platelets [1]): 67.5%
- inhibition at 100 mg/kg (blood platelets [1]): 100%
- inhibition at 300 µM (blood platelets [2]; 3·10^-4 M): 4%
- inhibition at 30 µM (blood platelets [2]; 3·10^-5 M): 5.3%
- inhibition at 3 µM (blood platelets [2]; 3·10^-6 M): 8.4%
- inhibition at 0.3 µM (blood platelets [2]; 3·10^-7 M): 3.5%
- Survival time of dead mice (mice; 100 mg/Kg oral): 322 ± 103 s
- Mortality (mice; 100 mg/Kg oral): 100%
- Survival time of dead mice (mice; 300 mg/Kg oral): 180 ± 67 s
- Mortality (mice; 300 mg/Kg oral): 37.5%
- Aggregation rate with ADP when carotid artery ring added ([3]; 30 mg/Kg oral): 45.7%
- Aggregation rate with ADP when carotid artery ring added ([3]; 100 mg/Kg oral): 58.3%
- inhibition of ADP aggregation with PGI2-like substances existing in carotid artery ring (in words) ([3]; from Table 5): said phenomena could not be observed
- activity to inhibit blood platelet aggregation (in words) (blood platelet): show the activity to inhibit blood platelet aggregation
- activity to increase blood flow (in words) (blood flow): does not show at all the activity to increase blood flow

SMILES: COc1ccc2c(c1)c(CC(=O)O)c(C)n2C(=O)c1ccc(Cl)cc1 [indomethacin]
- activity to inhibit blood platelet aggregation (in words) (blood platelet): show the activity to inhibit blood platelet aggregation
- activity to increase blood flow (in words) (blood flow): does not show at all the activity to increase blood flow
- topical blood flow in brain (in words) (brain): did decrease a topical blood flow in brain
